{
  "source": "patent US8673347B2",
  "about": "(Creabilis Therapeutics S.p.A., priority 2005, dated 2014)",
  "key": {"[1]": {"experiment": "Acute single dose toxicity study in mice, intraperitoneal route", "type": "in vivo", "settings": "for LD50 at 7 days: Balb/c, mouse, in vivo, ip, single dose intraperitoneal", "experimental": "Observations, which included clinical signs and behavioral changes, were performed every 30 minutes in the first 6 hour following administration, and twice a day during the following 7 days."}, "[2]": {"tested_on": "transplanted psoriatic plaques", "settings": "2 weeks of therapy, double-blinded, placebo-controlled; cited from earlier work"}, "[3]": {"settings": "animal model of pancreatic pain; cited from earlier work"}, "human keratinocytes": {"tested_on": "human keratinocytes", "experiment": "MTT-assay, antiproliferative activity on keratinocytes", "type": "cell-based", "experimental": "A metabolic MTT-assay was performed as test of the cellular vitality. The MTT-assay was performed using a well known and validated protocol, whereby the results are quantified through a spectrophotometric lecture, the number of living cells being directly proportional to the quantity of the formazan product formed as reduction product of MTT ([3-(4,5-dimethylthiazol-2-yl)-2,5-diphenyltetrazoliumbromid]) (Mosmann T., Rapid colorimetric assay for cellular growth and survival: Application to proliferation and cytotoxicity assays. J. Immunol. Methods. 1983, Dec. 16, 65(1-2):55-63). In the present study, the MTT-assay was performed on subconfluent cultures of keratinocytes seeded in 96-well plates for cellular culture (8000 cells/well). After the cells have been exposed to the substance which has to be analyzed, the cells are incubated for 4 hours at 37° C. with MTT (0.05%) in serum-free keratinocyte growth medium (KGM Clonetics Corp. San Diego, Calif., USA). After solubilisation of the cells with detergents, the formation of the dyestuff formazan is detected using a spectrophotometer for multi-well plate at 540 nm. The results are given as optical density unit (OD). […]"}, "[4]": {"experiment": "PK study in mice, repeated dermal administration", "type": "in vivo", "settings": "repeated dermal QD for 5 days, 1.03 mg/kg (about 2 μmol/kg), t = 3 h after last administration", "experimental": "(§1) At each sampling time, approximately 0.4 mL blood samples were collected from the ventral aorta of each animal using an insulin syringe, under deep ether anesthesia, and transferred into polyethylene Eppendorf tubes containing 50 μL of 5% EDTA water solution to prevent blood clotting. Blood samples were kept in ice until centrifugation at 1400 g for 5 min. in a refrigerated centrifuge (2-4° C.). From each tube plasma samples were then recovered, put in new Eppendorf tubes and frozen at −20° C. which until the HPLC analysis."}, "[5]": {"experiment": "PK study in mice, single dermal administration", "type": "in vivo", "experimental": "as §1\nComputer fitting of the data from each experimental group was then performed by NCOMP version 3.1 program (P. B. Laub et al., Journal of Pharmaceutical Sciences, 1996, 85(4):393-395). Values for area under the plasma concentration-time profile, T1/2, Tmax, Cmax, etc. were calculated by conventional formulas previously described (Gibaldi et al., Pharmacokinetics, 1982, Marcel Dekker, Inc., New York)."}, "[6]": {"experiment": "Dermal absorption study in mice of K-252a versus K-252a-PEG", "type": "in vivo", "settings": "male, Balb/C, mouse, plasma, topical, 3 mg/kg dermal", "experimental": "The experiment was performed using a dose of active agent in both preparation of 3 mg/kg. For the present study, three subsequent experiments have been performed in vivo using each time 6 Balb/C male mice purchased from Charles River (Calco, Italy). The mice were subdivided in the following experimental groups (two animals per group): • Group 1: The mice were treated with 3 mg/kg of K-252-a, by dermal administration and sacrificed after 30 minutes. • Group 2: The mice were treated with 3 mg/kg of K-252-a by dermal administration and sacrificed after 60 minutes. • Group 3: The mice were treated with 3 mg/kg of K-252-a-PEG(2K) of Example 1 by dermal administration and sacrificed after 60 minutes.\nThe oil-based preparations are in form of emulsions which are rendered homogeneous by repeated sonication. […] The applied emulsion was gently massaged on the back of the mice to favor the absorption. The mice were then sacrificed respectively after 30 or 60 minutes under ether anaesthesia and the blood was collected from the ventral aorta with the insulin syringe (approx. 1 mL/animal). […] The blood samples were then centrifugated at 2000 g for 5 minutes in a refrigerated (4° C.) centrifuge, purified by solid phase extraction (SPE) and subsequently analyzed through HPLC quantitative analysis (RT-HPLC analysis with)(Terra C18 column, eluent water/ACN). […]"}, "PDGFRβ": {"biological_target": "PDGFRβ (Homo sapiens, UniProt P09619)", "sequence (P09619 33-1106, species assumed)": "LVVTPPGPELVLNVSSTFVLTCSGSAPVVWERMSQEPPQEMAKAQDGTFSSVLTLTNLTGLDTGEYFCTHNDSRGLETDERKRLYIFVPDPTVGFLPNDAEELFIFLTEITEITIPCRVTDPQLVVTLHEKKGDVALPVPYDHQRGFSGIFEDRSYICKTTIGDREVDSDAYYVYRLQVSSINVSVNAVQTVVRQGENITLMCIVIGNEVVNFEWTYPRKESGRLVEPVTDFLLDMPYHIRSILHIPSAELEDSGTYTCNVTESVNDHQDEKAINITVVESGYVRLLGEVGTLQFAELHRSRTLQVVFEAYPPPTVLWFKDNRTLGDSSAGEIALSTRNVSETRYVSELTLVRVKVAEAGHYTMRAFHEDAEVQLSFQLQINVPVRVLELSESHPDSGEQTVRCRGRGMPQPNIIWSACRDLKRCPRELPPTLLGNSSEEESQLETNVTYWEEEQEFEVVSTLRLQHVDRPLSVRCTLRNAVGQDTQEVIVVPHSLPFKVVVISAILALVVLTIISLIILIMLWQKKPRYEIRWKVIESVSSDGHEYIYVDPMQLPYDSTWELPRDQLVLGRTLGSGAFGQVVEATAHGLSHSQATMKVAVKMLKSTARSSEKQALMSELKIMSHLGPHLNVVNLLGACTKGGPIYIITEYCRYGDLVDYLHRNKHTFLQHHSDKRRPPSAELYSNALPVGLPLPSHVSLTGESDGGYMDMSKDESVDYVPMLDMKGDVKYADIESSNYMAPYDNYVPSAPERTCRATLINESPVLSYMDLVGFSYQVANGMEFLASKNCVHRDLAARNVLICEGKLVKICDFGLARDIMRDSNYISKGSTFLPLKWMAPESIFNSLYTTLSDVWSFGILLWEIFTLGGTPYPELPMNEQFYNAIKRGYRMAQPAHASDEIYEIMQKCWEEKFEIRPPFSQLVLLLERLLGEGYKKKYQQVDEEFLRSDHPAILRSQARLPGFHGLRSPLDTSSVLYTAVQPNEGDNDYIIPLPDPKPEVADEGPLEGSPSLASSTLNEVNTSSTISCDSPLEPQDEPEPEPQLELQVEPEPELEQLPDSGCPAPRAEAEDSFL", "experiment": "Kinase inhibition profile", "type": "biochemical", "settings": "200 nM; read-out: inhibitory activity", "experimental": "(§2) The preparation of CT327 and the reference compounds was conducted following a similar procedure. CT327 also was tested at a concentration of 200 nM.\n(§3) The inhibitory activity of CT327 against the tested tyrosine kinase and serine/threonine kinases is shown in the Table a and b, respectively, reported in FIG. 9b."}, "AurA": {"biological_target": "AurA (Homo sapiens, UniProt O14965)", "sequence (O14965 whole entry, species assumed)": "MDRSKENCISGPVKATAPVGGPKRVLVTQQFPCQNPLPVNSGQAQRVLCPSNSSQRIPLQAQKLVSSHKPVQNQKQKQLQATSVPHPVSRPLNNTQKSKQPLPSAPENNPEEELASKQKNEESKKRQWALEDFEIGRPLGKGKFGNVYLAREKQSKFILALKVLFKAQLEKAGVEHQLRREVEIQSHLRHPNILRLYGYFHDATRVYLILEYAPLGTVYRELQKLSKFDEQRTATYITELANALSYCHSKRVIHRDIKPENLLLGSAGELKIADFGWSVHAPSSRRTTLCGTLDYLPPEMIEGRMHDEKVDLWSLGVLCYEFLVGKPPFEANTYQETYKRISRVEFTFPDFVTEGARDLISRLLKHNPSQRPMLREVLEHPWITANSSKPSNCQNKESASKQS", "experiment": "Kinase inhibition profile", "type": "biochemical", "settings": "200 nM; read-out: inhibitory activity", "experimental": "as §2, §3"}, "PDGFRα": {"biological_target": "PDGFRα (Homo sapiens, UniProt P16234)", "sequence (P16234 24-1089, species assumed)": "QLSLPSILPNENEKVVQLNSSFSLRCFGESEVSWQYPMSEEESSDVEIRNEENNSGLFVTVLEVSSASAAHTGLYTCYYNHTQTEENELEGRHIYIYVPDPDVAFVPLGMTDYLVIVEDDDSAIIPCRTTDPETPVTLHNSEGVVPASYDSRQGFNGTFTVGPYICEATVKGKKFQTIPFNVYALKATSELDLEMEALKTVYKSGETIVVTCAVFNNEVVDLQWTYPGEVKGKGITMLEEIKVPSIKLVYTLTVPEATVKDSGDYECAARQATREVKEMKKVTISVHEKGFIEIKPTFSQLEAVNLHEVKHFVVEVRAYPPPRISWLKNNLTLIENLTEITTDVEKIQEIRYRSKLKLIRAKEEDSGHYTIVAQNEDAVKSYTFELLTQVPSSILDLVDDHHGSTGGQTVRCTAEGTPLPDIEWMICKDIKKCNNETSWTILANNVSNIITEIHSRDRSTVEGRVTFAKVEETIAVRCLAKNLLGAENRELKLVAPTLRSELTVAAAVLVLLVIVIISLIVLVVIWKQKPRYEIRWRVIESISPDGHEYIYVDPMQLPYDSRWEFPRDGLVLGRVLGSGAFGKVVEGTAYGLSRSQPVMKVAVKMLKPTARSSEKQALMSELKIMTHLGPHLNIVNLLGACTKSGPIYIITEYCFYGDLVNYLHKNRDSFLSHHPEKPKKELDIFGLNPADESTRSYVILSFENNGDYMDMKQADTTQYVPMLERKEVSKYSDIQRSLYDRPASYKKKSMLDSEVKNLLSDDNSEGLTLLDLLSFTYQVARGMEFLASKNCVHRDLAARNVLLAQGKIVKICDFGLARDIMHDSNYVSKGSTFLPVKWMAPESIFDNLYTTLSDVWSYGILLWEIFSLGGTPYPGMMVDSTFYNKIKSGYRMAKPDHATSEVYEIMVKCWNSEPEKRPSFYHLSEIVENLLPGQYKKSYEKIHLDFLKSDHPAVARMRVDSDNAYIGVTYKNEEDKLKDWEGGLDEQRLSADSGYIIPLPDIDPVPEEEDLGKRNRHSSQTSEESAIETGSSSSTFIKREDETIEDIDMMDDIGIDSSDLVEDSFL", "experiment": "Kinase inhibition profile", "type": "biochemical", "settings": "200 nM; read-out: inhibitory activity", "experimental": "as §2, §3"}, "KIT": {"biological_target": "KIT (Homo sapiens, UniProt P10721)", "sequence (P10721 26-976, species assumed)": "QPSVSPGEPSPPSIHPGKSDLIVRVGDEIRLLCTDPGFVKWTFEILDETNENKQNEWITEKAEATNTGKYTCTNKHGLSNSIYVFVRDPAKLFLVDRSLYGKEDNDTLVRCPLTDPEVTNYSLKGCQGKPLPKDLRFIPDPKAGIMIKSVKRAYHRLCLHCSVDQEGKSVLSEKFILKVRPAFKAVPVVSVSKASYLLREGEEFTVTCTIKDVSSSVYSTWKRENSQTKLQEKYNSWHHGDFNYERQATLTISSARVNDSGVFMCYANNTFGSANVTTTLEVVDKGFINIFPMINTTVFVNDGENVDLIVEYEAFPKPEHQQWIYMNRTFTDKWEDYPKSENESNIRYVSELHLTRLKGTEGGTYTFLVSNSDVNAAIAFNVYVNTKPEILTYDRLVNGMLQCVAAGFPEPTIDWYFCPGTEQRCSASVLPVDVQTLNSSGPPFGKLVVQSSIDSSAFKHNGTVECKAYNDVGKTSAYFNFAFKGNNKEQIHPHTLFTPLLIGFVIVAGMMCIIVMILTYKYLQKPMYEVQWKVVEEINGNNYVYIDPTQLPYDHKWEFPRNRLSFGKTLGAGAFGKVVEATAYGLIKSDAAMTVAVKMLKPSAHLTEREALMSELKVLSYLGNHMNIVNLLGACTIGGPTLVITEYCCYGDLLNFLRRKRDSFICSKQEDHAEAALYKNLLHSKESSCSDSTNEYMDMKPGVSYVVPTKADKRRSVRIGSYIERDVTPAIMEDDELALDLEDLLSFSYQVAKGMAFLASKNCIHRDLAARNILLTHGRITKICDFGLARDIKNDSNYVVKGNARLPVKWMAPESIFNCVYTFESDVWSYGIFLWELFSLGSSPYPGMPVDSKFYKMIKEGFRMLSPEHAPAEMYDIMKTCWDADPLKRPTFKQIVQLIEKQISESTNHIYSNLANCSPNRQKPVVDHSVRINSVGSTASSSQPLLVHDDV", "experiment": "Kinase inhibition profile", "type": "biochemical", "settings": "200 nM; read-out: inhibitory activity", "experimental": "as §2, §3"}, "[7]": {"settings": "male, Balb/c, mouse, topical or ocular, 10 umol/kg, single dermal, plasma"}},
  "note": "Like-named read-outs stand apart in the source and are kept apart here.",
  "data": [
    {"molecule": "COC(=O)[C@]1(O)C[C@@H]2O[C@@]1(C)n1c3ccccc3c3c4c(c5c6ccccc6n2c5c31)C(=O)NC4", "note": "[Compound K-252a, K-252a]", "values": [
      {"measurement": "LD50 at 7 days", "setting": "[1]; female mice, read-out: LD50", "value": 41.4, "unit": "mg/kg"},
      {"measurement": "LD50 at 7 days", "setting": "[1]; male mice, read-out: LD50", "value": 37.7, "unit": "mg/kg"},
      {"measurement": "LD50 at 7 days", "setting": "[1]; both sexes, males and females together, read-out: average LD50", "value": 39, "unit": "mg/kg"},
      {"measurement": "survival", "setting": "[1]; female mice, 45 mg/kg, five per group", "value": "One female survived out of the five"},
      {"measurement": "survival", "setting": "[1]; female mice, 60 mg/kg, five per group", "value": "one"},
      {"measurement": "survival", "setting": "[1]; female mice, doses higher than 60 mg/kg", "value": "lethal to all female mice"},
      {"measurement": "survival", "setting": "[1]; female mice, lowest dose (30 mg/Kg)", "value": "survived"},
      {"measurement": "survival", "setting": "[1]; male mice, 30 mg/Kg", "value": "survived"},
      {"measurement": "survival", "setting": "[1]; male mice, all doses above 30 mg/Kg, within the first 22 hours after dosing", "value": "found dead"},
      {"measurement": "sedation", "setting": "[1]; males and females, lowest dose (30 mg/Kg), disappeared within 8-10 hours", "value": "very mild/mild sedation"},
      {"measurement": "psoriasis improvement", "setting": "[2]", "value": "significantly improved"},
      {"measurement": "hypersensitivity", "setting": "[3]", "value": "attenuates hypersensitivity"},
      {"measurement": "concentration with statistically significant antiproliferative action", "setting": "human keratinocytes; any contact time (1, 2, 4 h), cell counting after 48 h", "value": 200, "unit": "nM"},
      {"measurement": "antiproliferative activity", "setting": "human keratinocytes; contact 1, 2, 4 h, cell counting after 96 h", "value": "obtained for any tested concentration and any contact time"},
      {"measurement": "concentration at 3 h", "setting": "[4]; male, Balb/c, mouse, plasma, topical, 1.03 mg/kg", "value": 110, "unit": "nM"},
      {"measurement": "concentration at 3 h", "setting": "[4]; read-out: Mean Plasma Concentration", "value": 110.19, "unit": "nM"},
      {"measurement": "half-life", "setting": "[5]; male, Balb/c, mouse, plasma, topical or ocular, 5.075 mg/kg, single dermal administration, read-out: half-life", "value": 1.05, "unit": "h"},
      {"measurement": "concentration at 3 h", "setting": "[5]; male, Balb/c, mouse, plasma, topical, single dermal administration at same dosage (2 μmol/kg) and time point (3 hours), value±95% CI", "value": 72.9, "unit": "nM"},
      {"measurement": "half-life", "setting": "[5]; male, Balb/c, mouse, topical or ocular, 10 umol/kg, single dermal, 10 μmol/kg, plasma, read-out: Terminal T1/2", "value": 1.05, "unit": "h"},
      {"measurement": "AUC(0-inf)", "setting": "[5]; [7]", "value": 4.75, "unit": "µM·h"},
      {"measurement": "Cmax", "setting": "[5]; [7]", "value": 908, "unit": "nM"},
      {"measurement": "Tmax", "setting": "[5]; [7]", "value": 3, "unit": "h"},
      {"measurement": "time detectable in plasma after administration", "setting": "[5]; single dermal administration", "value": "≥ 9", "unit": "h"},
      {"measurement": "concentration at 30 min", "setting": "[6]; sacrificed after 30 minutes", "value": 23.3, "unit": "ng/mL"},
      {"measurement": "concentration at 60 min", "setting": "[6]; sacrificed after 60 minutes", "value": 42.1, "unit": "ng/mL"},
      {"measurement": "inhibition at 0.2 µM", "setting": "PDGFRβ", "value": "> 90", "unit": "%"},
      {"measurement": "inhibition at 0.2 µM", "setting": "AurA", "value": "> 90", "unit": "%"},
      {"measurement": "inhibition at 0.2 µM", "setting": "PDGFRα", "value": "> 90", "unit": "%"},
      {"measurement": "inhibition at 0.2 µM", "setting": "KIT", "value": "80 to 90", "unit": "%"}
    ]}
  ]
}
